Assay results taken from PubChem BioAssay (NCI).
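Compound exposure: 48 hours, 5 concentrations, 96-well plates. Abbreviation: GI50, concentration required for 50% inhibition of growth. TGI is the concentration that stops growth completely.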

How the values were obtained:
Assay in all cases: NCI-60 cell line screen, 48 h
A549 NSCLC = system: A549 NSCLC
CCRF-CEM leukemia = system: CCRF-CEM leukemia
HOP-62 NSCLC = system: HOP-62 NSCLC
KM12 colon = system: KM12 colon
OVCAR-8 ovarian = system: OVCAR-8 ovarian
SF-295 CNS = system: SF-295 CNS
U251 CNS = system: U251 CNS
OVCAR-4 ovarian = system: OVCAR-4 ovarian
NCI-H226 lung = system: NCI-H226 lung
SF-539 CNS = system: SF-539 CNS

Row | SMILES | GI50 (A549 NSCLC) | TGI (A549 NSCLC) | GI50 (CCRF-CEM leukemia) | TGI (CCRF-CEM leukemia) | GI50 (HOP-62 NSCLC) | TGI (HOP-62 NSCLC) | GI50 (KM12 colon) | TGI (KM12 colon) | GI50 (OVCAR-8 ovarian) | TGI (OVCAR-8 ovarian) | GI50 (SF-295 CNS) | TGI (SF-295 CNS) | GI50 (U251 CNS) | TGI (U251 CNS) | TGI (OVCAR-4 ovarian) | TGI (NCI-H226 lung) | TGI (SF-539 CNS) | GI50 (NCI-H226 lung) | GI50 (OVCAR-4 ovarian) | GI50 (SF-539 CNS)
1 | Cc1ccc(N(CC(=O)Nc2ccc(S(=O)(=O)N3CCC(N4CCCC4)CC3)cc2)S(=O)(=O)c2ccc(Cl)cc2)cc1 | 1.78 µM | 3.52 µM | 1.9 µM | 6.35 µM | 1.76 µM | 3.55 µM | 1.96 µM | 3.9 µM | 1.86 µM | 3.76 µM | 1.74 µM | 3.42 µM | 1.56 µM | 2.98 µM | – | – | – | – | – | –
2 | O=C1Nc2ccc(Cl)cc2/C1=C\c1c(Cl)nc2sccn12 | – | – | – | 62.3 µM | – | 96.3 µM | – | 23.4 µM | – | > 100 µM | – | 25.3 µM | – | > 100 µM | > 100 µM | – | – | – | – | –
3 | C[N+]1(CCCl)CC[N+](C)(CCCl)CC1 (stereo not drawn) | – | > 100 µM | – | > 100 µM | – | > 100 µM | – | > 100 µM | – | > 100 µM | – | > 100 µM | – | > 100 µM | > 100 µM | > 100 µM | > 100 µM | – | – | –
4 | CCOC(=O)CC1(c2cccc3ccccc23)OC(=O)c2ccccc21 (stereo not drawn) | – | > 100 µM | – | > 100 µM | – | – | – | > 100 µM | – | > 100 µM | – | > 100 µM | – | > 100 µM | > 100 µM | > 100 µM | – | – | – | –
5 | O=C(Nc1ccc(-n2ccc3c(NC(=O)c4ccccc4)ncnc32)cc1)Nc1cccc(Cl)c1Cl | 0.952 µM | 2.22 µM | 0.531 µM | 3.21 µM | 0.983 µM | 2.15 µM | 1.15 µM | 6.57 µM | 1.07 µM | 2.6 µM | 2.22 µM | > 50 µM | 0.571 µM | 1.4 µM | 1.91 µM | 4.87 µM | 5.69 µM | 1.07 µM | 0.878 µM | 1.12 µM
6 | O=C(O)CC1NCc2cc3ccccc3nc21 (stereo not drawn) | – | > 100 µM | – | > 100 µM | – | > 100 µM | – | > 100 µM | – | > 100 µM | – | > 100 µM | – | > 100 µM | > 100 µM | > 100 µM | > 100 µM | – | – | –
7 | O=C(O)/C(Cc1ccc([N+](=O)[O-])cc1)=N\O | – | > 100 µM | – | > 100 µM | – | > 100 µM | – | > 100 µM | – | > 100 µM | – | > 100 µM | – | > 100 µM | > 100 µM | > 100 µM | > 100 µM | – | – | –
8 | CC(=O)NC1=C[C@@H]([C@H]2COC(C)(C)O2)OC1=O | – | > 100 µM | – | > 100 µM | – | > 100 µM | – | > 100 µM | – | > 100 µM | – | > 100 µM | – | > 100 µM | – | > 100 µM | > 100 µM | – | – | –
9 | CC(C)C(N)=O | – | > 5000 µM | – | > 5000 µM | – | > 5000 µM | – | > 5000 µM | – | > 5000 µM | – | > 5000 µM | – | > 5000 µM | > 5000 µM | > 5000 µM | > 5000 µM | – | – | –
10 | C=C(OC1C(C)=C2C(C1OC(=O)CCCCCCC)C(C)(OC(C)=O)CC(OC(=O)CCC)C1(O)C2OC(=O)C1(C)O)/C(C)=C/C (stereo not drawn) | < 0.0001 µM | 6.16 µM | < 0.0001 µM | 6.24 µM | < 0.0001 µM | – | < 0.0001 µM | 3.63 µM | 0.000243 µM | 5.98 µM | < 0.0001 µM | 3.22 µM | < 0.0001 µM | 1.73 µM | 0.512 µM | 0.226 µM | 8.01 µM | < 0.0001 µM | < 0.0001 µM | < 0.0001 µM
11 | CCCCCCCCCCCCOCCCOP(=O)([O-])OCC[N+](C)(C)C | – | > 100 µM | – | 70.2 µM | – | > 100 µM | – | 9.77 µM | – | > 80.3 µM | – | > 100 µM | – | 47.7 µM | > 100 µM | 65.8 µM | 54.9 µM | – | – | –
12 | COC(=O)c1cnc(Cl)cn1 | – | > 100 µM | – | > 100 µM | – | > 100 µM | – | > 100 µM | – | > 100 µM | – | > 100 µM | – | > 100 µM | 45.5 µM | > 100 µM | > 100 µM | – | – | –
13 | Nc1nc(N)c2cc(NCc3ccc(Cl)c(Cl)c3)ccc2n1 | 0.528 µM | 1.82 µM | – | – | 1.63 µM | 3.01 µM | 1.29 µM | 2.59 µM | – | – | 1.22 µM | 2.61 µM | 1.12 µM | 2.37 µM | 2.61 µM | 3.14 µM | 3.04 µM | 1.53 µM | 1.34 µM | 1.65 µM
